Source: patent publication EP3002287B1, “Thiochromeno[2,3-c]quinolin-12-one derivatives and their use as topoisomerase inhibitors” (National Defense Medical Center, priority 2014, dated 2016)

How the values were obtained:
MDA-MB-435 = experiment: NCI in vitro 60-cell drug screen (SRB assay); format: cell-based; settings: MDA-MB-435 (Melanoma); 10^-5 molar concentration; 48 hours
DU-145 = experiment: NCI in vitro 60-cell drug screen (SRB assay); format: cell-based; settings: DU-145 (Prostate cancer); 10^-5 molar concentration; 48 hours
BT-549 = experiment: NCI in vitro 60-cell drug screen (SRB assay); format: cell-based; settings: BT-549 (Breast cancer); 10^-5 molar concentration; 48 hours
T-47D = experiment: NCI in vitro 60-cell drug screen (SRB assay); format: cell-based; settings: T-47D (Breast cancer); 10^-5 molar concentration; 48 hours
A549/ATCC = experiment: NCI in vitro 60-cell drug screen (SRB assay); format: cell-based; settings: A549/ATCC (Non-small cell lung cancer); 10^-5 molar concentration; 48 hours
NCI-H226 = experiment: NCI in vitro 60-cell drug screen (SRB assay); format: cell-based; settings: NCI-H226 (Non-small cell lung cancer); 10^-5 molar concentration; 48 hours
SNB-75 = experiment: NCI in vitro 60-cell drug screen (SRB assay); format: cell-based; settings: SNB-75 (CNS cancer); 10^-5 molar concentration; 48 hours
HOP-62 = experiment: NCI in vitro 60-cell drug screen (SRB assay); format: cell-based; settings: HOP-62 (Non-small cell lung cancer); 10^-5 molar concentration; 48 hours
HCT-15 = experiment: NCI in vitro 60-cell drug screen (SRB assay); format: cell-based; settings: HCT-15 (Colon cancer); 10^-5 molar concentration; 48 hours
OVCAR-5 = experiment: NCI in vitro 60-cell drug screen (SRB assay); format: cell-based; settings: OVCAR-5 (Ovarian cancer); 10^-5 molar concentration; 48 hours
TK-10 = experiment: NCI in vitro 60-cell drug screen (SRB assay); format: cell-based; settings: TK-10 (Renal cancer); 10^-5 molar concentration; 48 hours
SN12C = experiment: NCI in vitro 60-cell drug screen (SRB assay); format: cell-based; settings: SN12C (Renal cancer); 10^-5 molar concentration; 48 hours
UACC-257 = experiment: NCI in vitro 60-cell drug screen (SRB assay); format: cell-based; settings: UACC-257 (Melanoma); 10^-5 molar concentration; 48 hours
PC-3 = experiment: NCI in vitro 60-cell drug screen (SRB assay); format: cell-based; settings: PC-3 (Prostate cancer); 10^-5 molar concentration; 48 hours
OVCAR-3 = experiment: NCI in vitro 60-cell drug screen (SRB assay); format: cell-based; settings: OVCAR-3 (Ovarian cancer); 10^-5 molar concentration; 48 hours
IGROV1 = experiment: NCI in vitro 60-cell drug screen (SRB assay); format: cell-based; settings: IGROV1 (Ovarian cancer); 10^-5 molar concentration; 48 hours
HL-60(TB) = experiment: NCI in vitro 60-cell drug screen (SRB assay); format: cell-based; settings: HL-60(TB) (Leukemia); 10^-5 molar concentration; 48 hours
K-562 = experiment: NCI in vitro 60-cell drug screen (SRB assay); format: cell-based; settings: K-562 (Leukemia); 10^-5 molar concentration; 48 hours
NCI-H23 = experiment: NCI in vitro 60-cell drug screen (SRB assay); format: cell-based; settings: NCI-H23 (Non-small cell lung cancer); 10^-5 molar concentration; 48 hours
COLO 205 = experiment: NCI in vitro 60-cell drug screen (SRB assay); format: cell-based; settings: COLO 205 (Colon cancer); 10^-5 molar concentration; 48 hours
SK-MEL-5 = experiment: NCI in vitro 60-cell drug screen (SRB assay); format: cell-based; settings: SK-MEL-5 (Melanoma); 10^-5 molar concentration; 48 hours
CAKI-1 = experiment: NCI in vitro 60-cell drug screen (SRB assay); format: cell-based; settings: CAKI-1 (Renal cancer); 10^-5 molar concentration; 48 hours
HCT-116 = experiment: NCI in vitro 60-cell drug screen (SRB assay); format: cell-based; settings: HCT-116 (Colon cancer); 10^-5 molar concentration; 48 hours
UO-31 = experiment: NCI in vitro 60-cell drug screen (SRB assay); format: cell-based; settings: UO-31 (Renal cancer); 10^-5 molar concentration; 48 hours
CCRF-CEM = experiment: NCI in vitro 60-cell drug screen (SRB assay); format: cell-based; settings: CCRF-CEM (Leukemia); 10^-5 molar concentration; 48 hours
NCI/ADR-RES = experiment: NCI in vitro 60-cell drug screen (SRB assay); format: cell-based; settings: NCI/ADR-RES (Ovarian cancer); 10^-5 molar concentration; 48 hours
SF-268 = experiment: NCI in vitro 60-cell drug screen (SRB assay); format: cell-based; settings: SF-268 (CNS cancer); 10^-5 molar concentration; 48 hours
60 cell lines = experiment: NCI in vitro 60-cell drug screen (SRB assay), whole panel statistics; settings: mean over the cell panel; 10^-5 molar concentration; 48 hours
NCI-H522 = experiment: NCI in vitro 60-cell drug screen (SRB assay); format: cell-based; settings: NCI-H522 (Non-small cell lung cancer); 10^-5 molar concentration; 48 hours
SF-539 = experiment: NCI in vitro 60-cell drug screen (SRB assay); format: cell-based; settings: SF-539 (CNS cancer); 10^-5 molar concentration; 48 hours
SF-295 = experiment: NCI in vitro 60-cell drug screen (SRB assay); format: cell-based; settings: SF-295 (CNS cancer); 10^-5 molar concentration; 48 hours
HS 578T = experiment: NCI in vitro 60-cell drug screen (SRB assay); format: cell-based; settings: HS 578T (Breast cancer); 10^-5 molar concentration; 48 hours
MCF7 = experiment: NCI in vitro 60-cell drug screen (SRB assay); format: cell-based; settings: MCF7 (Breast cancer); 10^-5 molar concentration; 48 hours
UACC-62 = experiment: NCI in vitro 60-cell drug screen (SRB assay); format: cell-based; settings: UACC-62 (Melanoma); 10^-5 molar concentration; 48 hours
LOX IMVI = experiment: NCI in vitro 60-cell drug screen (SRB assay); format: cell-based; settings: LOX IMVI (Melanoma); 10^-5 molar concentration; 48 hours
A498 = experiment: NCI in vitro 60-cell drug screen (SRB assay); format: cell-based; settings: A498 (Renal cancer); 10^-5 molar concentration; 48 hours
SK-OV-3 = experiment: NCI in vitro 60-cell drug screen (SRB assay); format: cell-based; settings: SK-OV-3 (Ovarian cancer); 10^-5 molar concentration; 48 hours

O=C(O)c1c(Sc2ccc(Cl)cc2)c(O)nc2ccccc12 [Compound 2, 3-((4-Chlorophenyl)thio)-2-hydroxyquinoline-4-carboxylic acid]
Growth percent (MDA-MB-435): 102.02% | Growth percent (DU-145): 115.22% | Growth percent (BT-549): 124.20% | Growth percent (T-47D): 99.59% | Growth percent (A549/ATCC): 107.34% | Growth percent (NCI-H226): 105.64% | Growth percent (SNB-75): 82.18% | Growth percent (HOP-62): 116.47% | Growth percent (HCT-15): 107.80% | Growth percent (OVCAR-5): 112.47% | Growth percent (TK-10): 118.09% | Growth percent (SN12C): 95.83% | Growth percent (UACC-257): 121.83% | Growth percent (PC-3): 93.23% | Growth percent (OVCAR-3): 121.29% | Growth percent (IGROV1): 103.57% | Growth percent (HL-60(TB)): 105.63% | Growth percent (K-562): 112.29% | Growth percent (NCI-H23): 92.61% | Growth percent (COLO 205): 108.65% | Growth percent (SK-MEL-5): 98.07% | Growth percent (CAKI-1): 76.26% | Growth percent (HCT-116): 103.87% | Growth percent (UO-31): 68.91% | Growth percent (CCRF-CEM): 98.31% | Growth percent (NCI/ADR-RES): 97.75% | Growth percent (SF-268): 113.60% | Growth percent, Mean (60 cell lines): 102.11% | Growth percent (NCI-H522): 81.64% | Growth percent (SF-539): 110.22% | Growth percent (SF-295): 98.99% | Growth percent (HS 578T): 88.33% | Growth percent (MCF7): 91.95% | Growth percent (UACC-62): 102.05% | Growth percent (LOX IMVI): 90.46%

O=c1c2ccc(Cl)cc2sc2c(Cl)nc3ccccc3c12 [Compound 3, 6,9-Dichloro-12H-thiochromeno[2,3-c]quinolin-12-one]
Growth percent (MDA-MB-435): 100.64% | Growth percent (DU-145): 114.27% | Growth percent (A498): 106.06% | Growth percent (BT-549): 110.01% | Growth percent (T-47D): 110.10% | Growth percent (A549/ATCC): 104.74% | Growth percent (NCI-H226): 83.41% | Growth percent (SNB-75): 77.88% | Growth percent (HOP-62): 82.02% | Growth percent (HCT-15): 102.28% | Growth percent (OVCAR-5): 100.07% | Growth percent (TK-10): 108.56% | Growth percent (SN12C): 95.92% | Growth percent (UACC-257): 104.47% | Growth percent (PC-3): 91.59% | Growth percent (OVCAR-3): 111.27% | Growth percent (IGROV1): 96.06% | Growth percent (HL-60(TB)): 99.34% | Growth percent (K-562): 101.04% | Growth percent (NCI-H23): 85.12% | Growth percent (COLO 205): 112.15% | Growth percent (SK-MEL-5): 97.42% | Growth percent (CAKI-1): 94.31% | Growth percent (HCT-116): 102.27% | Growth percent (UO-31): 66.06% | Growth percent (CCRF-CEM): 93.12% | Growth percent (NCI/ADR-RES): 102.80% | Growth percent (SF-268): 109.60% | Growth percent, Mean (60 cell lines): 98.11% | Growth percent (SK-OV-3): 101.32% | Growth percent (NCI-H522): 96.81% | Growth percent (SF-539): 89.02% | Growth percent (SF-295): 90.26% | Growth percent (HS 578T): 95.14% | Growth percent (MCF7): 82.58% | Growth percent (UACC-62): 89.69% | Growth percent (LOX IMVI): 90.53%

CN1CCN(c2nc3ccccc3c3c(=O)c4cc(Cl)ccc4sc23)CC1 [Compound 8, 10-Chloro-6-(4-methylpiperazin-1-yl)-12H-thiochromeno[2,3-c]q uinolin-12-one]
Growth percent (MDA-MB-435): 105.80% | Growth percent (DU-145): 103.45% | Growth percent (A498): 79.33% | Growth percent (BT-549): 96.25% | Growth percent (T-47D): 82.24% | Growth percent (A549/ATCC): 99.80% | Growth percent (NCI-H226): 85.67% | Growth percent (SNB-75): 42.15% | Growth percent (HOP-62): 49.41% | Growth percent (HCT-15): 93.94% | Growth percent (OVCAR-5): 98.14% | Growth percent (TK-10): 97.07% | Growth percent (SN12C): 83.03% | Growth percent (UACC-257): 100.55% | Growth percent (PC-3): 84.81% | Growth percent (OVCAR-3): 89.13% | Growth percent (IGROV1): 80.08% | Growth percent (HL-60(TB)): 96.19% | Growth percent (K-562): 72.98% | Growth percent (NCI-H23): 81.11% | Growth percent (COLO 205): 90.06% | Growth percent (SK-MEL-5): 99.54% | Growth percent (CAKI-1): 87.50% | Growth percent (HCT-116): 80.94% | Growth percent (UO-31): 48.97% | Growth percent (CCRF-CEM): 91.60% | Growth percent (NCI/ADR-RES): 81.35% | Growth percent (SF-268): 82.98% | Growth percent, Mean (60 cell lines): 86.81% | Growth percent (SK-OV-3): 75.11% | Growth percent (NCI-H522): 98.78% | Growth percent (SF-539): 85.30% | Growth percent (SF-295): 91.69% | Growth percent (HS 578T): 65.57% | Growth percent (MCF7): 76.60% | Growth percent (UACC-62): 99.27% | Growth percent (LOX IMVI): 87.47%
